This note sets out measurements from patent publication US20240238423A9, “TETRAHYDROISOQUINOLINE HETEROBIFUNCTIONAL BCL-XL DEGRADERS” (Treeline Biosciences, Inc., priority 2022, published 2024).

Read-outs that look alike come from different tables or passages of the source.

The target in this assay is T1, Human BCL-XL protein (N-terminal HiBiT tagged BCL-XL in HT1080 cells) (Homo sapiens, UniProt Q07817).
T1 construct: expressed in transfected cells; host or cells: HT-1080 (ATCC CCL-121), stably transduced with lentivirus pLV-UBC-N-HiBiT-BCL-XL-PGK-puro and selected with puromycin
T1 sequence (Q07817 whole entry): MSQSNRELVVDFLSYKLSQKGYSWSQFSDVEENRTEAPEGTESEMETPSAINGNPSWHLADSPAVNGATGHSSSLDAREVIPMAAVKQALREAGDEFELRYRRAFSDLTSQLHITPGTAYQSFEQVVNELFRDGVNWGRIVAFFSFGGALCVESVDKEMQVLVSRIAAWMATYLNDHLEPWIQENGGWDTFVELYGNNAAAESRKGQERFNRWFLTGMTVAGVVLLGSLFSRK
Briefly: HiBiT based degradation assay. As to conditions: HT1080 cells expressing HiBiT-BCL-XL; for DC50: BCL-XL degradation. The class given is cell-based. Summed up: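 HT1080 cells stably transduced by lentivirus with N-terminally HiBiT-tagged human BCL-XL and kept under 1 μg/mL puromycin selection were seeded at three thousand cells per well in 40 μL RPMI 1640 into 384-well plates pre-spotted with compounds across a concentration range. Luminescence was read on a PHERAstar FSX, normalized to DMSO, and fitted with a four-parameter logistic model.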

As to `Cc1c(OCCOC2CCN(CC(=O)Nc3ccc4c(C5CCC(=O)NC5=O)nn(C)c4c3)CC2)cccc1-c1ccc(N2CCc3cccc(C(=O)Nc4nc5ccccc5s4)c3C2)nc1C(=O)O` (stereo not shown) [Compound 238, 6-(8-(benzo[d]thiazol-2-ylcarbamoyl)-3,4-dihydroisoquinolin-2(1H)-yl)-3-(3-(2-((1-(2-((3-(2,6-dioxopiperidin-3-yl)-1-methyl-1H-indazol-6-yl)amino)-2-oxoethyl)piperidin-4-yl)oxy)ethoxy)-2-methylphenyl)picolinic acid], the “Ymin (6 h)” value (BCL-XL degradation normalized with DMSO control, 6 h) was “B (50% ≤ Ymin < 70%)”. Further, the “Ymin (24 h)” value (BCL-XL degradation normalized with DMSO control, 24 h) is recorded as “B (50% ≤ Ymin < 70%)”. Besides, the DC50 runs as follows: (6 h, read-out: EC50 (6 h)) under 100 nM; (24 h, read-out: EC50 (24 h)) under 100 nM.
